≈ marks a conversion by molar mass, not a printed value.
Key:
[1] = molecular target: T1, α4β1 Integrin (Homo sapiens, UniProt P05556+P13612); assay: α4β1 Integrin Adhesion Assay: Jurkat cell adhesion to human plasma fibronectin; type: cell-based; settings: Jurkat cells
T1 construct: endogenous in cells; host or cells: Jurkat cells
Experimental: 96 well plates (Costar 3590 EIA plates) were coated with human fibronectin (Gibco/BRL, cat #33016-023) at a concentration of 10 μg/mL overnight at 4° C. The plates were then blocked with a solution of bovine serum albumin (BSA; 0.3%) in saline. Jurkat™ cells (maintained in log phase growth) were labeled with Calcein AM according to the manufacturer's instructions, and suspended at a concentration of 2×10^6 cells/mL in Hepes/Saline/BSA. The cells were then exposed to test and control compounds for 30 minutes at room temperature before transfer to individual wells of the fibronectin coated plate. Adhesion was allowed to occur for 35 minutes at 37° C. The wells were then washed by gentle aspiration and pipetting with fresh saline. Fluorescence associated with the remaining adherent cells was quantified using a fluorescence plate reader at EX 485/EM 530.
Cell cultures were prepared by first splitting the stationary phase Jurkat™ cells at 1:10 on day one, and 1:2 on day two to perform assay on day 3. The cells split 1:10 on day one were split 1:4 on day 3 for a day 4 assay.
The assay plates were prepared by first making a working solution of Gibco/BRL Human Fibronectin (cat # 33016-023) in PBS++, at 10 μg/mL.
A Costar 3590 EIA plate was then coated with 50 μL/well for 2 hours at room temperature (thought it can also be left overnight at 4° C.). Finally the plate was asperated and blocked with Hepes/Saline Buffer, 100 μL/well, for 1 hour at RT followed by washing three times with 150 μL of PBS++.
Compound dilutions were accomplished by preparing 1:3 serial dilutions of compounds as follows. For each plate (4 compounds/plate) 600 μL were added to 4 Bio-Rad Titertubes in a Titertube rack. Enough compound was added to each appropriate tube to give a 2× concentration using methods well known in the art. Using Falcon Flexiplates, 100 μL of Hepes/Saline buffer or human serum were added to rows B through G. A multi-channel pipetter set to 180 μL was used to with four tips spaced evenly the pipetter. Each set of four tubes was mixed 5 times and 180 μL of 2× compound was transferred to the first column of each compound dilution in Row B, leaving Row A empty. 180 μL were added to the other wells in Row A. Serial dilutions were performed down the plate by transferring 50 μL to the next dilution and mixing 5 times, changing tips each time after mixing. Dilutions were stopped at Row F. Row G had no compound present.
A 20 μg/mL solution in Hepes/Saline buffer or human serum, of 21/6 antibody was the positive control and was set aside in a reagent trough to add to cell suspension plate.
The cell staining was accomplished by first harvesting the log-phase Jurkat™ cells by centrifugation in 50 mL tubes (1100 rpm for 5 minutes). The cells were resuspended in 50 mL PBS++, spun, and resuspend in 20 mL PBS++. The cells were stained by adding 20 μL of Calcein AM for 30 minutes R.T. The volume was brought to 50 mL with Hepes/Saline buffer and the cells were counted, spun, and resuspend to 2×10^6 cells/mL in Hepes/Saline buffer or human serum.
The compounds were incubated using the following procedure. In a new flexiplate, 65 μL of stained cells were added to Rows B through H. Then 65 μL of 2× compounds were added to the appropriate rows following the plate setup and mixed 3×. 65 μL of 2×-21/6 antibody were added to Row H and mixed 3×. Finally the plate was incubated at room temperature for 30 minutes.
Fibronectin adhesion was measured using a fluorescent plate reader at EX 485/EM 530 after the following work up procedure. After incubation, the cells were mixed 3× and 100 μL were transferred to the Fibronectin coated plates and incubated at 37° C. for about 35 minutes. Each plate was washed, row by row, by gently pipetting 100 μL of R.T. PBS++ down the sides of the wells and turning the plate 90 degrees to aspirate. This procedure was repeated for a total of 3 washes. Each well was filled with 100 μL after washing by pipetting down the side of the well. […]

[2] = Cassette dosing and serum analysis for determination of oral bioavailability; type: in vivo, rat; settings: male SD rats, oral cassette of 6 compounds, total dose 10 mg/kg, plasma at 4, 8, 12 h
Experimental: The oral bioavailability was screened by dosing rats with a cassette, i.e. mixture of 6 compounds per dosing solution. The cassette included 5 test articles and a standard compound, for a total dose of 10 mg/kg. Each compound/test article was converted to the sodium salt with equimolar 1 N NaOH and dissolved in water at 2 mg/mL. The cassette was prepared by mixing equal volumes of each of the six solutions. The cassette dosing solution was mixed well and then the pH was adjusted to 7.5–9. The dosing solution was prepared the day before the study and stirred overnight at room temperature.
Male Sprague Dawley (SD) rats from Charles River Laboratories, 6–8 weeks old were used in this screen. Rats were quarantined for at least one day and had continuous access to food and water. On the night before the administration of the cassette, the rats were fasted for approximately 16 h.
Four SD rats were assigned in each cassette. A single dose of the dosing solution was administered orally to each rat. The dosing volume (5 mL/kg) and time were recorded and rats were fed 2 h after dosing.
Blood samples were collected via cardiac puncture at the following time points: 4 h, 8 h and 12 h. Immediately prior to blood collection, rats were anesthetized with CO2 gas within 10–20 seconds. After the 12-hour samples were collected, the rats were euthanized via CO2 asphyxiation followed by cervical dislocation.
Blood samples were kept in heparinized microtainer tubes under sub-ambient temperature (4° C.) before they were processed. Blood samples were centrifuged (10000 rpm for 5 minutes) and plasma samples were removed and stored in a −20° C. freezer until analyzed for drug levels. Drug levels in the plasma were analyzed using the following protocol for direct plasma precipitation.
The in vivo plasma samples were prepared in a 1.5 mL 96-well plate, by adding, in order, 100 μL of the test plasma, 150 μL of methanol, followed by vortexing for 10–20 seconds. 150 μL of 0.05 ng/μL of an Internal Standard in acetonitrile were added and vortexed for 30 seconds.
The standard curve samples were prepared in a 1.5 mL 96-well plate, by adding, in order, 100 μL of control mouse plasma, followed by 150 μL of methanol and vortexing for 10–20 seconds. 150 μL of 0.05 ng/μL of an Internal Standard in acetonitrile were added and vortexed for 30 seconds. The samples were spiked with 0–200 ng (10 concentrations) of the compound of interest in 50% methanol to obtain a standard curve range of 0.5 ng/mL–2,000 ng/mL. Again, the sample was vortexed for 30 seconds.
The samples were then spun for 20–30 minutes at 3000 rpm in an Eppendorf microfuge before 80–90% of supernatant was transferred into a clean 96-well plate. The organic solvent was then evaporated until the samples were dry (under N2 at 40° C./30–60 min (ZymarkTurbovap)).
The residue was then dissolved in […] mobile phase (50% CH3OH/0.1% TFA). LC/MS/MS was then run using a PE-Sciex API-3000 triple quadurpole mass spectrometer (SN0749707), Perkin-Elmer, Series200auto-sampler, and shimadzu 10A pump. Acquisition was done with PE-Sciex Analyst (v1.1) and data analysis and quantification were accomplished using PE-Sciex Analyst (v1.1). A 5–50 μL sample volume was injected onto a reverse phase ThermoHypersil DASH-18 column (Keystone 2.0×20 mm, 5 μm, PN: 8823025-701) using a mobile phase of 25% CH3OH, 0.1% TFA-100% CH3OH, 0.1% TFA. The run time was about 8 minutes at a flow rate of about 300 μL/minutes.
The Area Under the Curve (AUC) was calculated using the linear trapezoidal rule from t=0 to the last sampling time tx (see Handbook of Basic Pharmacokinetics, Wolfgang A. Ritschel and Gregory L. Kearns, 5th ed, 1999). AUC^0→tx═S((Cn+Cn+1)/2))·(tn+1−tn)[(μg/mL)h]
In the case of the cassette dosing paradigm, samples at 4, 8 and 12 h post extravascular dosing, the AUC was calculated from t=0 to t=12 h.

[3] = IC50, Cell Adhesion to Human Plasma Fibronectin (With Human Serum), with human serum
[4] = IC50, Cell Adhesion to Human Plasma Fibronectin (Without the Human Serum), without human serum

T1 sequence (P13612 34-1032): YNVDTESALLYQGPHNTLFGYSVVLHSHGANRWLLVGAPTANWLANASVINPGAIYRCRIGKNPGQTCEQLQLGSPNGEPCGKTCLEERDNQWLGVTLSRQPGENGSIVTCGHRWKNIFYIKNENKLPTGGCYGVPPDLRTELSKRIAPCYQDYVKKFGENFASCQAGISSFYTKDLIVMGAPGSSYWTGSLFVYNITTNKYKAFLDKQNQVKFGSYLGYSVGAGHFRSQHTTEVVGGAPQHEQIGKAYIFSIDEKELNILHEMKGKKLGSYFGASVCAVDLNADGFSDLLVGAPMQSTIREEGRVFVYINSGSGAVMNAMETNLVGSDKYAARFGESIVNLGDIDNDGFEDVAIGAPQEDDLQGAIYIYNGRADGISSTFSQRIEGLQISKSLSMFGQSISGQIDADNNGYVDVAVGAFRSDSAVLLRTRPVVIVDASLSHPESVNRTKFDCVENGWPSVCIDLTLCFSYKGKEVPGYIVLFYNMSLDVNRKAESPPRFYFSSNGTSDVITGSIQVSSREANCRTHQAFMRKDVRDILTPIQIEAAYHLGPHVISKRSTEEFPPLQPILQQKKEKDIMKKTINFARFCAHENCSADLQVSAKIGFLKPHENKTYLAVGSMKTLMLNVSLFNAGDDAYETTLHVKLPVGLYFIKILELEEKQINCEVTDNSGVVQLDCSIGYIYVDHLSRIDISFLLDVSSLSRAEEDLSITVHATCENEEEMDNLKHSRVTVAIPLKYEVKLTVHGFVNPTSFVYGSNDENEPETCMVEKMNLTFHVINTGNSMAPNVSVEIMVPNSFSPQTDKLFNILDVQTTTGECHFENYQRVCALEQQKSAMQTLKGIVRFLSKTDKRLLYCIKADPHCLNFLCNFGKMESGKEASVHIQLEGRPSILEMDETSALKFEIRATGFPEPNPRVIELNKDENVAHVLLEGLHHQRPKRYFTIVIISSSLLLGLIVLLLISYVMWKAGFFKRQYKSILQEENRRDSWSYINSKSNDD
T1 sequence (P05556 21-798): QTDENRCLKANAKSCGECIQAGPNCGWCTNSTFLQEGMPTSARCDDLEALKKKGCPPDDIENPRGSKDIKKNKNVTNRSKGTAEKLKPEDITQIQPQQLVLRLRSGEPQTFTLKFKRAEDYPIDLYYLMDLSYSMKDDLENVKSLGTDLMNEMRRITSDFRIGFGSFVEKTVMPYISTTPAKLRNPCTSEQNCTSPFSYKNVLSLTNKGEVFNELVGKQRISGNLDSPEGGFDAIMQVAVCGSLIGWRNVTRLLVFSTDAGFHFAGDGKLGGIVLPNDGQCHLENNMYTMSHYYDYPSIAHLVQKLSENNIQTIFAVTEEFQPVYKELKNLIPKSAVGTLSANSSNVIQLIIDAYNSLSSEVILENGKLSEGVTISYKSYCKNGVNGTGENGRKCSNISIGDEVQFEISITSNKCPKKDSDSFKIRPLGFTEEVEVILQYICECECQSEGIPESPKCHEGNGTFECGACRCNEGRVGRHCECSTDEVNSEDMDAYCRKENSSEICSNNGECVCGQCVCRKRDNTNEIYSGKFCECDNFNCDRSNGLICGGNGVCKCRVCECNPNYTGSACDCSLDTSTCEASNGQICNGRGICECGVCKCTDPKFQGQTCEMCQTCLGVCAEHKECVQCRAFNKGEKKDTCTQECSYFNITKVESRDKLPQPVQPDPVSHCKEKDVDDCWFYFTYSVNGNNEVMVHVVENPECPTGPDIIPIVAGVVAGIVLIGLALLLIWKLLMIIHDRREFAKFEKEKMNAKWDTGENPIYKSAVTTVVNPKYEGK

Row | Compound | IC50 [1, 3] [nM] | IC50 [1, 4] [nM] | AUC (average AUC 0→12 h) [2] | IC50, Cell Adhesion to Human Plasma Fibronectin (With Human Serum) ([1]; with human serum) [µg/mL] | IC50, Cell Adhesion to Human Plasma Fibronectin (Without the Human Serum) ([1]; without human serum) [µg/mL]
1 | CCN(CC)c1ncc(N(C)S(=O)(=O)c2cc(F)cc(F)c2)c(N[C@@H](Cc2ccc(OC(=O)N(C)C)cc2)C(=O)O)n1 [Example 15, 2-{2-diethylamino-5-[(3.5-difluorobenzenesulfonyl)methylamino]pyrimidin-4-ylamino}-3-(4-dimethylcarbamoyloxypheyl) propionic acid] | 205 | 1.51 | 0.2098 (μg/mL)h |  | 
2 | CCCCN(c1cnc(N(CC)CC)nc1NC(Cc1ccc(OC(=O)N(C)C)cc1)C(=O)O)S(=O)(=O)c1ccc(F)cc1 (stereo not drawn) [Example 24, 2-{2-diethylamino-5-[(4-fluorobenzenesulfonyl)-n-butylamino]pyrimidin-4-ylamino}-3-(4-dimethylcarbamoyloxyphenyl)propionic acid] | 42.8 | 4.76 | 0.4983 (μg/mL)h |  | 
3 | C#CCN(c1cnc(N(CC)CC)nc1N[C@@H](Cc1ccc(OC(=O)N(C)C)cc1)C(=O)O)S(=O)(=O)c1ccc(F)cc1 [Example 27] | 106 | 1.63 | 1.6258 (μg/mL)h |  | 
4 | CCN(CC)c1ncc(N(C)S(=O)(=O)c2cccc(F)c2)c(N[C@@H](Cc2ccc(OC(=O)N(C)C)cc2)C(=O)O)n1 [Example 7, 2-{2-diethylamino-5-[(3-fluorobenzenesulfonyl)methylaminol]pyrimidin-4-ylamino}-3-(4-dimethylcarbamoyloxyphenyl) propionic acid] | 997 | 1.39 | 0.717 (μg/mL)h |  | 
5 | 2-{2-diethylamino-5-[(4-fluorobenzenesulfonyl)ethylamino]pyrimidin-4-ylamino}-3-(4-dimethylcarbamoyloxyphenyl)propionic acid [Example 9] |  |  | 1.564 (μg/mL)h | 0.106 | 0.001
6 | CCN(CC)c1ncc(N(C(C)C)S(=O)(=O)c2ccc(F)cc2)c(N[C@@H](Cc2ccc(OC(=O)N(C)C)cc2)C(=O)O)n1 [Example 8] | 264 | 4.87 | 0.5088 (μg/mL)h |  | 
7 | 2-{2-diethylamino-5-[(4-fluorobenzenesulfonyl)methylamino]pyrimidin-4-ylamino}-3-(4-dimethylcarbamoyloxyphenyl)propionic acid [Example 1] |  |  | 2.3308 (μg/mL)h | 0.318 | 0.002
8 | CCN(CC)c1ncc(N(CC)S(=O)(=O)c2cc(Cl)cc(Cl)c2)c(N[C@@H](Cc2ccc(OC(=O)N(C)C)cc2)C(=O)O)n1 [Example 20] | 119 | 7.82 | 0.0536 (μg/mL)h |  | 
9 | CCN(CC)c1ncc(N(C)S(=O)(=O)c2cc(Cl)cc(Cl)c2)c(N[C@@H](Cc2ccc(OC(=O)N(C)C)cc2)C(=O)O)n1 [Example 19] | 133 | 5.31 | 0.0697 (μg/mL)h |  | 
10 | CCN(CC)c1ncc(N(C)S(=O)(=O)c2cc(F)ccc2F)c(NC(Cc2ccc(OC(=O)N(C)C)cc2)C(=O)O)n1 (stereo not drawn) [Example 25] |  |  | 0.4559 (μg/mL)h | 6.72 (≈ 11.1 µM) | 0.006 (≈ 0.00989 µM)
11 | 2-{2-diethylamino-5-[(benzenesulfonyl)methylamino]pyrimidin-4-ylamino}-3-(4-dimethylcarbamoyloxyphenyl)propionic acid [Example 5] |  |  | 0.9577 (μg/mL)h | 1.851 | 0.001414
12 | CCN(CC)c1ncc(N(CC)S(=O)(=O)c2cc(F)cc(F)c2)c(N[C@@H](Cc2ccc(OC(=O)N(C)C)cc2)C(=O)O)n1 [Example 16, 2-{2-diethylamino-5-[(3.5-difluorobenzenesulfonyl)ethylamino]pyrimidin-4-ylamino}-3-(4-dimethylcarbamoyloxyphenyl) propionic acid] | 108 | 1.67 | 0.1721 (μg/mL)h |  | 

Source: patent US7008949B2, “Heterocyclic compounds which inhibit leukocyte adhesion mediated by α4 integrins” (Elan Pharmaceuticals, Inc., priority 2003, dated 2006)
